{"source": "patent EP2386565A2", "about": "“Compounds and methods to inhibit or augment an inflammatory response” (Cambridge Enterprise Ltd., priority 1999, dated 2000)", "test_system": "ovalbumin-induced pulmonary inflammation, IgE, IL-4 and recall responses", "assay": "Ovalbumin-induced asthma / hypersensitivity model", "assay_type": "in vivo, mice", "set-up": "Total IgE (Serum), individual mice m1-m4 / Total IgE (Serum), Avg.: unit not given here", "conditions": "for ng/ml IgE (4X avg.): serum; for splenocyte recall response to OVA (in words): versus positive controls", "method": "A third study assessed the efficacy of daily dosing with CRD-Leu4Ile11Cys13 peptide 3(3-12)[MCP-1] to reduce OVA-induced pulmonary inflammation. Mice were sensitized with 0.1 mg of ovalbumin or PBS (diluent control) intraperitoneally in the absence of the test agent. […] These treatments were given daily from day 8 through day 21. On day 8, thirty minutes following treatment, mice were challenged intratracheally with 1% ovalbumin or PBS. On days 15, 18, and 21, thirty minutes following treatment, mice were challenged intratracheally with 2% ovalbumin or PBS. Mice were sacrificed 3 hours post-ovalbumin challenge, on day 21. Lungs were collected for histopathology, and for isolation of cells for total cell counts and FACS analysis. Bronchalveolar lavage (BAL) was collected for eicosinoid levels. Serum was collected for IgE and IL-4 levels. Spleens were collected for cytokine recall responses. […]", "key": {"[1]": {"conditions": "Group 5: Ova on days 8, 15, 18, 21, treat BID 14 days, sacrifice day 34 (No recent Ova challenge), 0 µg/ml Ova"}, "[2]": {"conditions": "Group 5: PBS on days 8, 15, 18, 21, treat BID 14 days, sacrifice day 34 (No recent Ova challenge), 0 µg/ml Ova"}}, "note": "Values joined by “and” are separate entries in the source; they are usually repeats but may differ in a detail not shown here. Equal values may be shown once. “Also recorded” adds a separate entry of the source. Positions of bridges follow the written chain, without caps; N, C: chain ends. Non-standard residues stand in square brackets, D forms with d. Residues, ends and D or L forms follow the SMILES beside them.", "data": [{"compound": "CC[C@@H](C)[C@H]1NC(=O)[C@@H](CCC(N)=O)NC(=O)[C@H](N)CSSC[C@H](C(N)=O)NC(=O)[C@@H](CC(C)C)NC(=O)[C@@H](CC(=O)O)NC(=O)[C@H]2CCCN2C(=O)[C@@H](CCCCN)NC(=O)[C@@H](CCC(N)=O)NC(=O)[C@@H](CCCCN)NC(=O)[C@@H](Cc2c[nH]c3ccccc23)NC1=O", "note": "(H-[dC][dQ][dI][dW][dK][dQ][dK][dP][dD][dL][dC]-NH2; disulfide 1-11)", "values": [{"measurement": "Total IgM + IgG (1 week splenocyte cultures), individual mice m1-m4", "setting": "Group 4, 5 µg/ml Ova, listed as CRD-Leu4Ile11Cys13 peptide 3(3-12)[MCP]", "result": "189.07 and 249.75 and 148.16 and 68.83"}, {"measurement": "IL-4 Assays, pg/ml IL-4, Avg. of Group", "setting": "Group 4, 50 µg/ml Ova", "result": 14.45, "unit": "pg/mL"}, {"measurement": "IL-4 Assays, pg/ml IL-4, individual mice m1-m4", "setting": "Group 4, 50 µg/ml Ova", "result": "14.38 pg/mL and 22.08 pg/mL and 10.25 pg/mL and 11.09 pg/mL"}, {"measurement": "Total IgE (1 week splenocyte cultures)", "setting": "Group 4, 50 µg/ml Ova", "result": 0.082, "unit": "ng/mL"}, {"measurement": "Total IgE (1 week splenocyte cultures), Avg.", "setting": "Group 4, 50 µg/ml Ova", "result": 0.021}, {"measurement": "Total IgM + IgG (1 week splenocyte cultures), Avg.", "setting": "Group 4, 50 µg/ml Ova", "result": 416.86}, {"measurement": "Total IgE (1 week splenocyte cultures), individual mice m1-m4", "setting": "Group 4, 50 µg/ml Ova, listed as CRD-Leu4Ile11Cys13peptide 3(3-12)[MCP-1]", "result": "0.013 and 0.043 and 0.008 and 0.018"}, {"measurement": "Total IgM + IgG (1 week splenocyte cultures), individual mice m1-m4", "setting": "Group 4, 50 µg/ml Ova, listed as CRD-Leu4Ile11Cys13 peptide 3(3-12)[MCP]", "result": "338.50 and 679.86 and 487.87 and 161.20"}, {"measurement": "ng/ml IgE (4X avg.)", "setting": "Group 4", "result": 2.482, "unit": "ng/mL"}, {"measurement": "Total IgE (Serum), Avg.", "setting": "Group 5", "result": 1.102}, {"measurement": "Total IgE (1 week splenocyte cultures), individual mice m1-m4", "setting": "Group 5 (No recent Ova challenge), 0 µg/ml Ova", "result": "0.008 and 0.033 and 0.000 and 0.024"}, {"measurement": "Total IgE (Serum), individual mice m1-m4", "setting": "Group 5 (treated 14 days, no recent Ova challenge)", "result": "0.625 and 1.870 and 0.838 and 1.073"}, {"measurement": "IL-4 Assays, pg/ml IL-4, Avg. of Group", "setting": "[1]", "result": 8.05, "unit": "pg/mL"}, {"measurement": "IL-4 Assays, pg/ml IL-4, individual mice m1-m4", "setting": "[1]", "result": "9.09 pg/mL and 3.80 pg/mL and 12.89 pg/mL and 6.42 pg/mL"}, {"measurement": "Total IgM + IgG (1 week splenocyte cultures), Avg.", "setting": "[2]", "result": 20.05}, {"measurement": "Total IgM + IgG (1 week splenocyte cultures), individual mice m1-m4", "setting": "[2]", "result": "26.54 and 15.44 and 21.35 and 16.89"}, {"measurement": "Total IgE (1 week splenocyte cultures)", "setting": "Group 5, 0 µg/ml Ova", "result": 0.065, "unit": "ng/mL"}, {"measurement": "Total IgE (1 week splenocyte cultures), Avg.", "setting": "Group 5, 0 µg/ml Ova", "result": 0.016}, {"measurement": "IL-4 Assays, pg/ml IL-4, Avg. of Group", "setting": "Group 5, 5 µg/ml Ova", "result": 6.33, "unit": "pg/mL"}, {"measurement": "IL-4 Assays, pg/ml IL-4, individual mice m1-m4", "setting": "Group 5, 5 µg/ml Ova", "result": "5.70 pg/mL and 4.43 pg/mL and 10.09 pg/mL and 5.10 pg/mL"}, {"measurement": "Total IgE (1 week splenocyte cultures)", "setting": "Group 5, 5 µg/ml Ova", "result": 0.082, "unit": "ng/mL"}, {"measurement": "Total IgE (1 week splenocyte cultures), Avg.", "setting": "Group 5, 5 µg/ml Ova", "result": 0.021}, {"measurement": "Total IgE (1 week splenocyte cultures), individual mice m1-m4", "setting": "Group 5, 5 µg/ml Ova", "result": "0.003 and 0.065 and 0.000 and 0.014"}, {"measurement": "Total IgM + IgG (1 week splenocyte cultures), Avg.", "setting": "Group 5, 5 µg/ml Ova", "result": 53.22}, {"measurement": "Total IgM + IgG (1 week splenocyte cultures), individual mice m1-m4", "setting": "Group 5, 5 µg/ml Ova", "result": "64.20 and 31.21 and 67.94 and 49.53"}, {"measurement": "IL-4 Assays, pg/ml IL-4, Avg. of Group", "setting": "Group 5, 50 µg/ml Ova", "result": 5.61, "unit": "pg/mL"}, {"measurement": "IL-4 Assays, pg/ml IL-4, individual mice m1-m4", "setting": "Group 5, 50 µg/ml Ova", "result": "7.02 pg/mL and 6.10 pg/mL and 4.74 pg/mL and 4.59 pg/mL"}, {"measurement": "Total IgE (1 week splenocyte cultures)", "setting": "Group 5, 50 µg/ml Ova", "result": 0.021, "unit": "ng/mL"}, {"measurement": "Total IgE (1 week splenocyte cultures), Avg.", "setting": "Group 5, 50 µg/ml Ova", "result": 0.005}, {"measurement": "Total IgE (1 week splenocyte cultures), individual mice m1-m4", "setting": "Group 5, 50 µg/ml Ova", "result": "0.000 (2×) and 0.020 and 0.001"}, {"measurement": "Total IgM + IgG (1 week splenocyte cultures), Avg.", "setting": "Group 5, 50 µg/ml Ova", "result": 111.41}, {"measurement": "Total IgM + IgG (1 week splenocyte cultures), individual mice m1-m4", "setting": "Group 5, 50 µg/ml Ova", "result": "86.16 and 80.04 and 189.70 and 89.74"}, {"measurement": "ng/ml IgE (4X avg.)", "setting": "Group 5", "result": 4.406, "unit": "ng/mL"}, {"measurement": "inflammatory infiltrates in the lung, histology (in words)", "setting": "first study, high dose", "result": "minimal to no inflammatory infiltrates"}, {"measurement": "reduction in IL-4", "setting": "second study, dose-dependent", "result": 85, "unit": "%"}, {"measurement": "reduction in macrophages", "setting": "second study, dose-dependent", "result": 74, "unit": "%"}, {"measurement": "reduction in total cells in the lung", "setting": "second study, dose-dependent", "result": "approximately 50%"}, {"measurement": "reduction in IgE", "setting": "second study, s.c. 10.3 µg-1.03 mg before OVA challenges, dose-dependent", "result": 60, "unit": "%"}, {"measurement": "cells in the lungs, total counts / FACS (in words)", "setting": "versus PBS + OVA positive controls, study and dose as in the block", "result": "significantly lower numbers of CD3, CD4, B220, and Mac-1 cells; also recorded: significantly lower percentages of macrophages; also recorded: significantly lower numbers of macrophages, B cells, and CD4+ T cells; also recorded: no significant reduction of total cells in the lungs"}, {"measurement": "IgE levels (in words)", "setting": "versus PBS + OVA positive controls, study as in the block", "result": "not detectable above background; also recorded: significantly lower; also recorded: significantly reduced; also recorded: reduced levels of serum IgE"}, {"measurement": "splenocyte recall response to OVA (in words)", "setting": "study as in the block", "result": "reduced levels of IL-4, IgE, and total IgG and IgM"}, {"measurement": "splenocyte recall response to OVA (in words)", "setting": "study as in the block, listed as CRD-Leu4Ile11Cys13peptide 3(3-12)[MCP-1]", "result": "significantly less IL-4"}]}]}
